Molecular target: CYP3A4 (Homo sapiens, UniProt P08684, S18F)
Assay: Stopped-flow spectroscopy of ligand binding to CYP3A4 nanodiscs
Conditions: faster in POPC nanodiscs

Q: Which “rate constant for binding in POPC nanodiscs relative to 25% POPC/75% DMPC nanodiscs” value does the source give for `C[C@]12CC[C@H]3[C@@H](CCC4=CC(=O)CC[C@@]43C)[C@@H]1CC[C@@H]2O` [TST, testosterone] here?
A: ~ 4 fold

From paper PMC5275761 (Biochemistry, 2016)
